Where two headings read alike, the source gives them in different places.
Tests used:
[1] = tested on: A. baumannii 14B00100 (Acinetobacter sp., BCRC number 14B0100)
Experimental: (§1) The antibacterial and salt-resistant activity of the peptides was tested using Escherichia coli (ATCC 25922), Pseudomonas aeruginosa Migula (ATCC 27853), Acinetobacter sp. (BCRC number 14B0091, BCRC number 14B0097, and BCRC number 14B0100), and Staphylococcus aureus sp. strains (ATCC 25923, ATCC 33591, ATCC 33592, ATCC 33593, and ATCC 6538). All bacteria were obtained from the Food Industry Research and Development Institute (Hsinchu, Taiwan) and cultured in sterilized Müller-Hinton (MH) broth at 37 °C and 200 rpm for 8 h. The inoculum concentrations were determined by measuring the optical density at 600 nm (OD 600 = 1, approximately 10^8 CFU/mL) using an Ultrospec 2100 pro UV-Visible spectrophotometer (Biochrom Ltd., Cambridge, UK) after 8 h of culture.
(§2) The antibacterial activities of the peptides in Müller-Hinton (MH) broth and modified LYM broth were determined using the standard broth microdilution method as per Clinical and Laboratory Standards Institute (CLSI) guidelines. The LYM broth was prepared with specific components and adjusted to different conditions, including varying concentrations of NaCl and MgCl2, and different pH levels. To prepare the LYM broth, 5.4 mM KCl, 5.6 mM Na2HPO4, 0.5 mM MgSO4, and 1.0 mM sodium citrate were added. Additionally, 0.4 mg of ZnCl2, 2.0 mg of FeCl3·6H2O, 0.1 mg of CuSO4·5H2O, 0.1 mg of MnSO4·H2O, 0.1 mg of Na2B4O7∙10H2O, 700 mg of amino acid mixtures without tryptophan (Takara Bio Inc., San Jose, CA, USA), and 20 mg of L-tryptophan were added per liter of medium. The pH was adjusted to 7.4, and a vitamin mixture (100X, Sigma) and glucose concentration of 2% were added. For different conditions of LYM broth, NaCl concentrations of 300, 200, 150, and 50 mM, MgCl2 concentrations of 2.5, 1.5, and 0.5 mM, and pH levels of 6.5, 5.5, and 4.5 were adjusted. Bacterial strains were incubated in MH broth overnight, regrown, and diluted to a final concentration of 5 × 10^5 CFU/mL. Peptides were added to each well at final concentrations of 50, 25, 12.5, 6.25, 3.13, 1.56, and 0.78 µg/mL, and 99 µL of diluted microbes was loaded into each well of a polypropylene 96-well plate. […] The Morpheus HeatMap software (https://software.broadinstitute.org/morpheus/) was used to display MIC values on a color scale. All experiments were independently repeated three times.

[2] = tested on: A. baumannii 14B0091 (Acinetobacter sp., BCRC number 14B0091)
Experimental: as §1, §2

[3] = tested on: A. baumannii 14B0097 (Acinetobacter sp., BCRC number 14B0097)
Experimental: as §1, §2

[4] = tested on: Escherichia coli (ATCC 25922)
Experimental: as §1, §2

[5] = tested on: S. aureus ATCC 25923
Experimental: as §1, §2

[6] = tested on: S. aureus ATCC 6538
Experimental: as §1, §2

[7] = tested on: Gram-negative bacteria; test: Geometric mean MIC and therapeutic index, Gram-negative bacteria; format: cell-based; conditions: Gram-negative bacteria
Experimental: (§3) In this study, we aimed to investigate the potential of W5K series peptides for therapeutic use. To evaluate their efficacy for antibacterial therapy, we used the Therapeutic Index (TI) as a measure of their cell selectivity. The TI was calculated as the ratio of the concentration causing 10% hemolysis of human red blood cells (HC10) to the geometric mean minimum inhibitory concentration (GM) of the peptides against both Gram-negative and Gram-positive bacteria. This parameter was used to quantitatively assess the balance between antibacterial potency and cytotoxicity among the W5K derivatives.
as §2

[8] = tested on: Gram-positive bacteria; test: Geometric mean MIC and therapeutic index, Gram-positive bacteria; format: cell-based; conditions: Gram-positive bacteria
Experimental: as §3, §2

[9] = LYM broth, 0 mM NaCl, 16 h, 37 °C
[10] = LYM broth, 50 mM NaCl, 16 h, 37 °C
[11] = LYM broth, 100 mM NaCl, 16 h, 37 °C
[12] = LYM broth, 200 mM (NaCl), 16 h, 37 °C
[13] = LYM broth, 300 mM (NaCl), 16 h, 37 °C
[14] = MH broth, 5 × 10^5 CFU/mL, 16 h, 37 °C, repeated three times
[15] = MH broth, MIC >50 µg/mL counted as 100 µg/mL

Ac-KKKWRKWLKWLAK-NH2 [Peptide W5K12]
17.6: Therapeutic Index (TI) G− ([7]; HC10/GM)
3.13 µg/mL: MIC ([1]; LYM broth, 2.5 mM MgCl2) | MIC ([1]; LYM broth, pH 4.5) | MIC ([1]; LYM broth, pH 5.5) | MIC [1, 14] | MIC [2, 13] | MIC ([2]; LYM broth, pH 4.5) | MIC ([2]; LYM broth, pH 5.5) | MIC ([3]; LYM broth, 2.5 mM MgCl2) | MIC [3, 13] | MIC ([3]; LYM broth, pH 4.5) | MIC ([3]; LYM broth, pH 5.5) | MIC ([4]; LYM broth, 0.5 mM MgCl2) | MIC ([4]; LYM broth, 1.5 mM MgCl2) | MIC ([4]; LYM broth, 2.5 mM MgCl2) | MIC [4, 10] | MIC [4, 11] | MIC [4, 14] | MIC ([5]; LYM broth, 1.5 mM MgCl2) | MIC ([5]; LYM broth, 2.5 mM MgCl2) | MIC [5, 10] | MIC [5, 11] | MIC ([5]; LYM broth, pH 4.5) | MIC ([5]; LYM broth, pH 5.5) | MIC [5, 14] | MIC [6, 11] | MIC ([6]; LYM broth, pH 4.5) | MIC [6, 14]
6.25 µg/mL: MIC [4, 12] | MIC [5, 12] | MIC [6, 12]
4.7 µg/mL: GM G+ (geometric mean of the MIC values) [8, 15]
12.5 µg/mL: MIC [4, 13] | MIC [5, 13] | MIC [6, 13]
2.4 µg/mL: GM G− (geometric mean of the MIC values) [7, 15]
1.56 µg/mL: MIC [1, 9] | MIC ([1]; LYM broth, 0.5 mM MgCl2) | MIC ([1]; LYM broth, 1.5 mM MgCl2) | MIC [1, 10] | MIC [1, 11] | MIC [1, 12] | MIC [1, 13] | MIC ([1]; LYM broth, pH 6.5) | MIC [2, 9] | MIC ([2]; LYM broth, 0.5 mM MgCl2) | MIC ([2]; LYM broth, 1.5 mM MgCl2) | MIC ([2]; LYM broth, 2.5 mM MgCl2) | MIC [2, 10] | MIC [2, 11] | MIC [2, 12] | MIC ([2]; LYM broth, pH 6.5) | MIC [2, 14] | MIC [3, 9] | MIC ([3]; LYM broth, 0.5 mM MgCl2) | MIC ([3]; LYM broth, 1.5 mM MgCl2) | MIC [3, 10] | MIC [3, 11] | MIC [3, 12] | MIC ([3]; LYM broth, pH 6.5) | MIC [3, 14] | MIC [4, 9] | MIC ([4]; LYM broth, pH 4.5) | MIC ([4]; LYM broth, pH 5.5) | MIC ([4]; LYM broth, pH 6.5) | MIC [5, 9] | MIC ([5]; LYM broth, 0.5 mM MgCl2) | MIC ([5]; LYM broth, pH 6.5) | MIC [6, 9] | MIC ([6]; LYM broth, 0.5 mM MgCl2) | MIC ([6]; LYM broth, 1.5 mM MgCl2) | MIC ([6]; LYM broth, 2.5 mM MgCl2) | MIC [6, 10] | MIC ([6]; LYM broth, pH 5.5) | MIC ([6]; LYM broth, pH 6.5)
8.8: Therapeutic Index (TI) G+ ([8]; HC10/GM)

From paper PMC12649549, “Sequence Permutation Generated Lysine and Tryptophan-Rich Antimicrobial Peptides with Enhanced Therapeutic Index” (Antibiotics, 2025)
